From patent US9594073B2, “Test solvent for evaluating the compatibility of biologically active substances and graft copolymers” (ABBVIE DEUTSCHLAND GMBH & CO KG, priority 2010, dated 2017) come the findings set out here.

The structures appear in SMILES notation.

The data set in a line: Homogeneity of melt extrudates with Soluplus (optical microscope). The data set is classed as physicochemical. The protocol:
Samples were prepared by melt extrusions of mixtures consisting of fenofibrate or ibuprofen and Soluplus®. […] Aliquots of 50 g of the powdery mixtures were extruded on a laboratory extruder (Rondol l (10 mm) Rondol Technology Ltd. Staffordshire GB) using a conveying screw equipped with two kneading elements at about 120° C. and 100 rpm. The powdery mixtures were continuously metered in via a vibratory feeder. The extrudate exiting the extruder was passed through a calendar with two smooth rollers arranged at a gap distance of 0.4 mm. Calendered sheets having a thickness of about 1 mm were thus obtained. Pieces of 2 mm×2 mm were cut out from the sheets and homogeneity of the pieces was examined using an optical microscope (Leica DMLM).

`CC(C)Cc1ccc(C(C)C(=O)O)cc1` (centres unmarked) [ibuprofen]: the “Amount of crystals in extrudate” value is, setting by setting: (ibuprofen concentration 40 wt %) “no crystals”; (ibuprofen concentration 45 wt %) “no crystals”; (ibuprofen concentration 50 wt %) “low”; (ibuprofen concentration 55 wt %) “moderate”; (ibuprofen concentration 60 wt %) “high”.
